From PubChem BioAssay AID330 (DTP/NCI, 2004)
Several values for one entry are separate records, joined by “and”; a condition that tells them apart may be missing. Equal entries are not always repeated. Toxic doses and inconclusive results are not listed. Rule for the calls: active = survival T/C of 150% or more; inactive = T/C below 125% in these data. Peptide text beside a SMILES is read from it.

System: P388 leukemia ip, CD2F1 mice, survival T/C
Test: NCI In Vivo Anticancer Drug Screen. Data for tumor model P388 Leukemia (intraperitoneal) in CD2F1 (CDF1) mice
Details: endpoint: median survival time, higher = longer survival
Summary of the method: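 Mice carrying the transplanted tumor received test compound or vehicle. Survival was recorded in each group, and the value is the treated-group measurement divided by that of the vehicle-treated control group.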

[1] = dose: 50.0 mg/kg/injection, schedule: Q01DX005 (ip), vehicle: saline with Tween-80
[2] = dose: 100.0 mg/kg/injection, schedule: Q01DX005 (ip), vehicle: saline with Tween-80
[3] = dose: 200.0 mg/kg/injection, schedule: Q01DX005 (ip), vehicle: saline with Tween-80
[4] = dose: 60.0 mg/kg/injection, schedule: Q01DX005 (ip), vehicle: saline with Tween-80
[5] = dose: 120.0 mg/kg/injection, schedule: Q01DX005 (ip), vehicle: saline with Tween-80
[6] = dose: 240.0 mg/kg/injection, schedule: Q01DX005 (ip), vehicle: saline with Tween-80
[7] = dose: 100.0 mg/kg/injection, schedule: Q01DX001 (ip), vehicle: saline with Tween-80
[8] = dose: 200.0 mg/kg/injection, schedule: Q01DX001 (ip), vehicle: saline with Tween-80
[9] = dose: 400.0 mg/kg/injection, schedule: Q01DX001 (ip), vehicle: saline with Tween-80
[10] = dose: 50.0 mg/kg/injection, schedule: Q04DX003 (ip), vehicle: saline with Tween-80
[11] = dose: 100.0 mg/kg/injection, schedule: Q04DX003 (ip), vehicle: saline with Tween-80
[12] = dose: 60.0 mg/kg/injection, schedule: Q01DX005 (ip), vehicle: Klucel (hydroxypropylcellulose) (HPC)
[13] = dose: 120.0 mg/kg/injection, schedule: Q01DX005 (ip), vehicle: Klucel (hydroxypropylcellulose) (HPC)
[14] = dose: 240.0 mg/kg/injection, schedule: Q01DX005 (ip), vehicle: Klucel (hydroxypropylcellulose) (HPC)
[15] = dose: 50.0 mg/kg/injection, schedule: Q01DX009 (ip), vehicle: saline with Tween-80
[16] = dose: 100.0 mg/kg/injection, schedule: Q01DX009 (ip), vehicle: saline with Tween-80
[17] = dose: 50.0 mg/kg/injection, schedule: Q01DX005 (ip), vehicle: Klucel (hydroxypropylcellulose) (HPC)
[18] = dose: 100.0 mg/kg/injection, schedule: Q01DX005 (ip), vehicle: Klucel (hydroxypropylcellulose) (HPC)
[19] = dose: 200.0 mg/kg/injection, schedule: Q01DX005 (ip), vehicle: Klucel (hydroxypropylcellulose) (HPC)

Measured: T/C

O=C(c1ccccc1)C(CC(C(=O)c1ccccc1)c1ccccc1)c1ccccc1 (stereo unspecified)
inactive: [1] 108 % of control | [2] 96 % of control | [3] 99 % of control

O=S(=O)(c1ccccn1)c1nc2ccccc2s1
inactive: [4] 94 % of control | [5] 90 % of control | [6] 94 % of control

COc1ccc2c(c1O)-c1c(O)c(OC)cc3c1[C@H](C2)[N+](C)(C)CC3
inactive: dose: 12.5 mg/kg/injection, schedule: Q04DX003 (ip), vehicle: saline 109 % of control | dose: 25.0 mg/kg/injection, schedule: Q04DX003 (ip), vehicle: saline 114 % of control | dose: 50.0 mg/kg/injection, schedule: Q04DX003 (ip), vehicle: saline 98 % of control and 109 % of control | dose: 100.0 mg/kg/injection, schedule: Q04DX003 (ip), vehicle: saline 113 % of control

CC(=O)N(c1ccccc1)[Si](C)(C)C
inactive: [7] 107 % of control | [8] 106 % of control | [9] 100 % of control

O=C(Nc1cc(-c2ccccc2)[nH]n1)c1ccccc1
inactive: [4] 103 % of control | [5] 106 % of control | [6] 100 % of control

Cc1csc2cc(Br)c3ccccc3c12
inactive: [7] 101 % of control | [8] 103 % of control

COc1cc(/C=C/C(N)=O)cc(OC)c1OC
inactive: [10] 94 % of control | [11] 90 % of control | dose: 200.0 mg/kg/injection, schedule: Q04DX003 (ip), vehicle: saline with Tween-80 99 % of control | dose: 400.0 mg/kg/injection, schedule: Q04DX003 (ip), vehicle: saline with Tween-80 100 % of control

NC1CNC(=O)NC1=O (stereo unspecified)
inactive: dose: 50.0 mg/kg/injection, schedule: Q01DX005 (ip), vehicle: saline 101 % of control | dose: 100.0 mg/kg/injection, schedule: Q01DX005 (ip), vehicle: saline 100 % of control | dose: 200.0 mg/kg/injection, schedule: Q01DX005 (ip), vehicle: saline 101 % of control

N=C(N)c1ccc(Oc2ccc(Oc3ccc(C(=N)N)cc3)cc2)cc1
inactive: dose: 3.13 mg/kg/injection, schedule: Q01DX009 (ip), vehicle: saline with Tween-80 109 % of control | dose: 3.13 mg/kg/injection, schedule: Q01DX009 (ip), vehicle: saline 102 % of control | dose: 6.25 mg/kg/injection, schedule: Q01DX009 (ip), vehicle: saline with Tween-80 109 % of control | dose: 6.25 mg/kg/injection, schedule: Q01DX009 (ip), vehicle: saline 113 % of control | dose: 12.5 mg/kg/injection, schedule: Q01DX009 (ip), vehicle: saline with Tween-80 124 % of control

CC(=O)OC1OC(CS[As](C)CCO)C(OC(C)=O)C(OC(C)=O)C1OC(C)=O (stereo unspecified)
inactive: dose: 50.0 mg/kg/injection, schedule: Q01DX009 (ip), vehicle: Klucel (hydroxypropylcellulose) (HPC) 110 % of control | dose: 100.0 mg/kg/injection, schedule: Q01DX009 (ip), vehicle: Klucel (hydroxypropylcellulose) (HPC) 112 % of control | dose: 200.0 mg/kg/injection, schedule: Q01DX009 (ip), vehicle: Klucel (hydroxypropylcellulose) (HPC) 112 % of control

O=C(CC1(O)C(=O)Nc2ccccc21)c1cccc([N+](=O)[O-])c1 (stereo unspecified)
inactive: [12] 97 % of control | [13] 103 % of control | [14] 99 % of control

COC1=Nc2ccccc2S(=O)(=O)C=C1
inactive: dose: 15.0 mg/kg/injection, schedule: Q01DX005 (ip), vehicle: saline with Tween-80 101 % of control | dose: 30.0 mg/kg/injection, schedule: Q01DX005 (ip), vehicle: saline with Tween-80 104 % of control | [4] 116 % of control and 119 % of control

CCCCC(CC)CN=Cc1c(O)c(O)c(C(C)C)c2cc(C)c(-c3c(C)cc4c(C(C)C)c(O)c(O)c(C=NCC(CC)CCCC)c4c3O)c(O)c12 (stereo unspecified)
inactive: [1] 93 % of control | [2] 88 % of control | [3] 86 % of control

C(=N\Nc1nc2ccccc2s1)/c1ccc(/C=N/Nc2nc3ccccc3s2)cc1
inactive: [15] 105 % of control | [16] 105 % of control | dose: 200.0 mg/kg/injection, schedule: Q01DX009 (ip), vehicle: saline with Tween-80 102 % of control

CC(C)CC1CCCC12NC(=O)NC2=O (stereo unspecified)
inactive: [17] 97 % of control | [18] 89 % of control | [19] 93 % of control

CCOC1(C2(O)CCCCC2)CC(C)=NO1 (stereo unspecified)
inactive: dose: 100.0 mg/kg/injection, schedule: Q04DX002 (ip), vehicle: Klucel (hydroxypropylcellulose) (HPC) 104 % of control | dose: 200.0 mg/kg/injection, schedule: Q04DX002 (ip), vehicle: Klucel (hydroxypropylcellulose) (HPC) 98 % of control | dose: 400.0 mg/kg/injection, schedule: Q04DX002 (ip), vehicle: Klucel (hydroxypropylcellulose) (HPC) 102 % of control

C1=C[N-]c2c3c(ccc2=C1)=CC=C[N-]3.C1=C[N-]c2c3c(ccc2=C1)=CC=C[N-]3.O=[N+]([O-])O.[Cu+]
inactive: dose: 1.56 mg/kg/injection, schedule: Q04DX002 (ip), vehicle: saline 100 % of control | dose: 3.12 mg/kg/injection, schedule: Q04DX002 (ip), vehicle: saline 99 % of control and 98 % of control | dose: 6.25 mg/kg/injection, schedule: Q04DX002 (ip), vehicle: saline 99 % of control and 110 % of control and 98 % of control | dose: 12.5 mg/kg/injection, schedule: Q04DX002 (ip), vehicle: saline 120 % of control and 97 % of control | dose: 25.0 mg/kg/injection, schedule: Q04DX002 (ip), vehicle: saline 111 % of control and 97 % of control

COc1ccc2c(=O)c(-c3ccc(OC)c(OC)c3OCc3ccccc3)coc2c1
inactive: dose: 100.0 mg/kg/injection, schedule: Q01DX001 (ip), vehicle: Klucel (hydroxypropylcellulose) (HPC) 92 % of control | dose: 200.0 mg/kg/injection, schedule: Q01DX001 (ip), vehicle: Klucel (hydroxypropylcellulose) (HPC) 96 % of control | dose: 400.0 mg/kg/injection, schedule: Q01DX001 (ip), vehicle: Klucel (hydroxypropylcellulose) (HPC) 94 % of control

O=S1(=O)C2CCCCC2C2CCCCC21 (stereo unspecified)
inactive: [7] 108 % of control | [8] 106 % of control | [9] 113 % of control

COc1ccc2c(c1OC)C1=NCCc3cc4c(cc3C1(OC)C2=O)OCO4 (stereo unspecified)
inactive: dose: 25.0 mg/kg/injection, schedule: Q01DX005 (ip), vehicle: Klucel (hydroxypropylcellulose) (HPC) 111 % of control | [17] 99 % of control | [18] 109 % of control | [19] 98 % of control

COc1ccc2c(c1)SC1=NNC(=O)CN12
inactive: [12] 89 % of control | [13] 89 % of control | [14] 91 % of control

c1ccc2c(c1)CCc1c-2n[nH]c1-c1[nH]nc2c1CCc1ccccc1-2
inactive: [12] 99 % of control | [13] 89 % of control | [14] 88 % of control

COC(=O)C(Cc1ccc(O)cc1)NC(=O)C(Cc1ccccc1)NC(C)=O (stereo not drawn) (Ac-Phe-Tyr-OMe; configuration not given here)
inactive: [17] 92 % of control | [18] 97 % of control | [19] 88 % of control

CC1(C)OC2C(COC(=O)Oc3ccccc3)OC(n3cnc4c(=S)nc[nH]c43)C2O1 (stereo unspecified)
inactive: dose: 25.0 mg/kg/injection, schedule: Q01DX009 (ip), vehicle: saline with Tween-80 95 % of control | dose: 25.0 mg/kg/injection, schedule: Q04DX003 (ip), vehicle: saline with Tween-80 105 % of control | [15] 95 % of control | [10] 110 % of control | [16] 95 % of control | [11] 100 % of control
